According to patent publication US20180185347A1, “TETRAHYDROCYCLOPENTA[B]INDOLE COMPOUNDS AND PHOSPHODIESTERASE INHIBITORS FOR THE TREATMENT OF THE SIGNS AND SYMPTOMS OF BHP” (Transition Therapeutics (Ireland 2) Limited, priority 2016, published 2018):
Read-outs that look alike come from different tables or passages of the source.

Columns and labels:
LnCAP cells = assay: LnCAP gene expression; type: cell-based; conditions: Homo sapiens
orchidectomized rats = assay: Testosterone induced prostate / seminal vesicle growth in delayed ORX rat model; type: in vivo
Source text: Orchidectomized (ORX) and sham-operated Wistar male rats were used (orchidectomized at 8 weeks of age and allowed to waste for 4 weeks). […] Rats were randomized and placed into treatment groups (n=6) based on body weight. Route of administration for all groups except testosterone enanthate (TE was given sub-cutaneously) was oral. At the end of 2 weeks of daily rats were euthanized, weighed & tissue harvested. Levator ani, prostates, and seminal vesicles were collected from each animal. Results are plotted as means±SE.

[1] = ORX + TE, 1 mg/kg/d (control group itself)

SMILES	EC50 (LnCAP cells; read-out: LnCAP Gene Expression EC50 (nM) AR) [nM]	EC50 (LnCAP cells; read-out: LnCAP Gene Expression EC50 (nM) CLUSTERIN) [nM]	EC50 (LnCAP cells; read-out: LnCAP Gene Expression EC50 (nM) PSA) [nM]	prostate weights, Abs(Dif)-LSD vs ORX + TE control (orchidectomized rats; [1])	seminal vesicle wet weights, Abs(Dif)-LSD vs ORX + TE control (orchidectomized rats; [1])	prostate weight and seminal vesical weight (orchidectomized rats; ORX rat, Testosterone 1 mg/k/d alone for 2 weeks)
C[C@]1(O)CC[C@H]2[C@@H]3CCC4=CC(=O)CCC4=C3C=C[C@@]21C [R1881]	0.035	0.37	0.034			
CCCCCCC(=O)O[C@H]1CC[C@H]2[C@@H]3CCC4=CC(=O)CC[C@]4(C)[C@H]3CC[C@]12C [TE, Testosterone Enanthate, reference compound]				−0.15	−0.52	increase in prostate weight and seminal vesical weight
